# Assay results taken from patent US12435044B2, “Pyridazinone herbicides and pyridazinone intermediates used to prepare a herbicide” (FMC Corporation, priority 2018, dated 2025).
# Legend:
# Assay type in all cases: in vivo
# [1] = system: giant foxtail (SETFA; Setaria faberi); test: Test G preemergence, mixtures of Cpd. No. 20 with (b15C1)
# From the text: (§1) This test evaluated the effect of mixtures of Cpd. No. 20 with (b15C1) on several plant species. Seeds of plant species selected from corn (ZEAMD; Zea mays, cv. ‘Pioneer 1184’), soybean (GLXMA; Glycine max, cv. Pioneer 35T58), giant foxtail (SETFA; Setaria faberi), barnyardgrass (ECHCG; Echinochloa crus-galli), large crabgrass (DIGSA; Digitaria sanguinalis), palmer amaranth (AMAPA; Amaranthus palmeri), common waterhemp (AMATU; Amaranthus rudis), and common ragweed (AMBEL; Ambrosia artemisiifolia) were planted in pots containing Tama Silt Loam soil and treated preemergence with a directed soil spray using test chemicals formulated in a non-phytotoxic solvent mixture which included a surfactant.
# (§2) Treated plants and untreated controls were maintained in a greenhouse for approximately 21 d, after which time all treated plants were compared to untreated controls and visually evaluated for injury. Plant response ratings, summarized in Table G, are based on a 0 to 100 scale where 0 is no effect and 100 is complete control. A dash (-) response means no test result. Test results are presented as a mean of 4 reps.
# [2] = system: soybean (GLXMA; Glycine max, cv. Pioneer 35T58); test: as above
# From the text: as §1, §2
# [3] = system: barnyardgrass (ECHCG; Echinochloa crus-galli); test: as above
# From the text: as §1, §2
# [4] = system: common waterhemp (AMATU; Amaranthus rudis); test: as above
# From the text: as §1, §2
# [5] = system: palmer amaranth (AMAPA; Amaranthus palmeri); test: as above
# From the text: as §1, §2
# [6] = system: common ragweed (AMBEL; Ambrosia artemisiifolia); test: as above
# From the text: as §1, §2
# [7] = system: large crabgrass (DIGSA; Digitaria sanguinalis); test: as above
# From the text: as §1, §2
# [8] = system: corn (ZEAMD; Zea mays, cv. ‘Pioneer 1184’); test: as above
# From the text: as §1, §2
# [9] = system: giant foxtail (SETFA; Setaria faberi); test: Test of Tables L1 to L3, postemergence, mixtures of Cpd. No. 20 with benoxacor, isoxadifen-ethyl, or cloquintocet-mexyl; details: 31 g a.i./ha
# From the text: (§3) This test evaluated the effect of mixtures of Cpd. No. 20 with benoxacor, isoxadifen-ethyl, or cloquintocet-mexyl on several plant species. Seeds of plant species selected from corn (ZEAMD; Zea mays, cv. ‘Pioneer 1184’), soybean (GLXMA; Glycine max, cv. Pioneer 35T58), winter wheat (TRZAW; Triticum aetivum, cv. Arezzo), rice (ORYSS; Oryza sativa, cv. M202), and giant foxtail (SETFA; Setaria faberi) were planted in pots containing Redi-Earth® planting medium (Scotts Company, 14111 Scottslawn Road, Marysville, Ohio 43041) comprising spaghnum peat moss, vermiculite, wetting agent and starter nutrients and treated postemergence using test chemicals formulated in a non-phytotoxic solvent mixture which included a surfactant. Plants ranged in height from 7 to 10 cm and were in the one- to two-leaf stage for the postemergence treatment. Treated plants and untreated controls were maintained in a greenhouse for approximately 14 d, after which time all treated plants were compared to untreated controls and visually evaluated for injury. Plant response ratings, summarized in Tables L1 to L3, are based on a 0 to 100 scale where 0 is no effect and 100 is complete control. A dash (-) response means no test result. Test results are presented as a mean of 4 reps.
# [10] = system: rice (ORYSS; Oryza sativa, cv. M202); test: as above; details: 31 g a.i./ha
# From the text: as §3
# [11] = system: soybean (GLXMA; Glycine max, cv. Pioneer 35T58); test: as above; details: 31 g a.i./ha
# From the text: as §3
# [12] = system: winter wheat (TRZAW; Triticum aetivum, cv. Arezzo); test: as above; details: 31 g a.i./ha
# From the text: as §3
# [13] = system: corn (ZEAMD; Zea mays, cv. ‘Pioneer 1184’); test: as above; details: 31 g a.i./ha
# From the text: as §3
# [14] = system: giant foxtail (SETFA; Setaria faberi); test: Test M postemergence, mixtures of Cpd. No. 20 with isoxadifen-ethyl, cloquintocet-mexyl or Mefenpyr-diethyl; details: approx. 14 d, second component alone 31 g a.i./ha
# From the text: as §3, with “with” for “with benoxacor,”, “or cloquintocet-mexyl, or Mefenpyr-diethyl” for “or cloquintocet-mexyl”, “Arezzo), winter barley (HORVW; Hordeum vulgare, cv. Boone),” for “Arezzo),”, “Tables M1” for “Tables L1”, “to M3,” for “to L3,”, “of 3” for “of 4”
# [15] = system: rice (ORYSS; Oryza sativa, cv. M202); test: as above; details: approx. 14 d, second component alone 31 g a.i./ha
# From the text: as §3, with “with” for “with benoxacor,”, “or cloquintocet-mexyl, or Mefenpyr-diethyl” for “or cloquintocet-mexyl”, “Arezzo), winter barley (HORVW; Hordeum vulgare, cv. Boone),” for “Arezzo),”, “Tables M1” for “Tables L1”, “to M3,” for “to L3,”, “of 3” for “of 4”
# [16] = system: soybean (GLXMA; Glycine max, cv. Pioneer 35T58); test: as above; details: approx. 14 d, second component alone 31 g a.i./ha
# From the text: as §3, with “with” for “with benoxacor,”, “or cloquintocet-mexyl, or Mefenpyr-diethyl” for “or cloquintocet-mexyl”, “Arezzo), winter barley (HORVW; Hordeum vulgare, cv. Boone),” for “Arezzo),”, “Tables M1” for “Tables L1”, “to M3,” for “to L3,”, “of 3” for “of 4”
# [17] = system: winter barley (HORVW; Hordeum vulgare, cv. Boone); test: as above; details: approx. 14 d, second component alone 31 g a.i./ha
# From the text: as §3, with “with” for “with benoxacor,”, “or cloquintocet-mexyl, or Mefenpyr-diethyl” for “or cloquintocet-mexyl”, “Arezzo), winter barley (HORVW; Hordeum vulgare, cv. Boone),” for “Arezzo),”, “Tables M1” for “Tables L1”, “to M3,” for “to L3,”, “of 3” for “of 4”
# [18] = system: winter wheat (TRZAW; Triticum aetivum, cv. Arezzo); test: as above; details: approx. 14 d, second component alone 31 g a.i./ha
# From the text: as §3, with “with” for “with benoxacor,”, “or cloquintocet-mexyl, or Mefenpyr-diethyl” for “or cloquintocet-mexyl”, “Arezzo), winter barley (HORVW; Hordeum vulgare, cv. Boone),” for “Arezzo),”, “Tables M1” for “Tables L1”, “to M3,” for “to L3,”, “of 3” for “of 4”
# [19] = system: corn (ZEAMD; Zea mays, cv. ‘Pioneer 1184’); test: as above; details: approx. 14 d, second component alone 31 g a.i./ha
# From the text: as §3, with “with” for “with benoxacor,”, “or cloquintocet-mexyl, or Mefenpyr-diethyl” for “or cloquintocet-mexyl”, “Arezzo), winter barley (HORVW; Hordeum vulgare, cv. Boone),” for “Arezzo),”, “Tables M1” for “Tables L1”, “to M3,” for “to L3,”, “of 3” for “of 4”
structure (smiles),measurement,setting,value
"FC(F)c1cc(-c2c(Cl)cccc2Oc2ncc(Cl)cn2)on1 [(b15C1), 5-chloro-2-[3-chloro-2-[3-(difluoromethyl)-5-isoxazolyl]phenoxy]-pyrimidine, reference compound]",Plant response rating (0 to 100 scale),[1]; (b15C1) 8 g a.i./ha alone,5
same,Plant response rating (0 to 100 scale),[1]; (b15C1) 16 g a.i./ha alone,34
same,Plant response rating (0 to 100 scale),[1]; (b15C1) 31 g a.i./ha alone,74
same,Plant response rating (0 to 100 scale),[2]; (b15C1) 8 g a.i./ha alone,0
same,Plant response rating (0 to 100 scale),[2]; (b15C1) 16 g a.i./ha alone,0
same,Plant response rating (0 to 100 scale),[2]; (b15C1) 31 g a.i./ha alone,0
same,Plant response rating (0 to 100 scale),[3]; (b15C1) 8 g a.i./ha alone,0
same,Plant response rating (0 to 100 scale),[3]; (b15C1) 16 g a.i./ha alone,0
same,Plant response rating (0 to 100 scale),[3]; (b15C1) 31 g a.i./ha alone,35
same,Plant response rating (0 to 100 scale),[4]; (b15C1) 8 g a.i./ha alone,0
same,Plant response rating (0 to 100 scale),[4]; (b15C1) 16 g a.i./ha alone,0
same,Plant response rating (0 to 100 scale),[4]; (b15C1) 31 g a.i./ha alone,20
same,Plant response rating (0 to 100 scale),[5]; (b15C1) 8 g a.i./ha alone,60
same,Plant response rating (0 to 100 scale),[5]; (b15C1) 16 g a.i./ha alone,88
same,Plant response rating (0 to 100 scale),[5]; (b15C1) 31 g a.i./ha alone,97
same,Plant response rating (0 to 100 scale),[6]; (b15C1) 8 g a.i./ha alone,54
same,Plant response rating (0 to 100 scale),[6]; (b15C1) 16 g a.i./ha alone,90
same,Plant response rating (0 to 100 scale),[6]; (b15C1) 31 g a.i./ha alone,100
same,Plant response rating (0 to 100 scale),[7]; (b15C1) 8 g a.i./ha alone,54
same,Plant response rating (0 to 100 scale),[7]; (b15C1) 16 g a.i./ha alone,90
same,Plant response rating (0 to 100 scale),[7]; (b15C1) 31 g a.i./ha alone,100
same,Plant response rating (0 to 100 scale),[8]; (b15C1) 8 g a.i./ha alone,0
same,Plant response rating (0 to 100 scale),[8]; (b15C1) 16 g a.i./ha alone,0
same,Plant response rating (0 to 100 scale),[8]; (b15C1) 31 g a.i./ha alone,0
"CCOC(=O)C1=NOC(c2ccccc2)(c2ccccc2)C1 [Isoxadifen-ethyl, isoxadifen-ethyl, reference compound]","SETFA plant response rating, 0 to 100 scale",[9],0
same,"ORYSS plant response rating, 0 to 100 scale",[10],8
same,"GLXMA plant response rating, 0 to 100 scale",[11],10
same,"TRZAW plant response rating, 0 to 100 scale",[12],0
same,"ZEAMD plant response rating, 0 to 100 scale",[13],0
same,Plant response rating (0 to 100 scale) SETFA,[14],0
same,Plant response rating (0 to 100 scale) ORYSS,[15],0
same,Plant response rating (0 to 100 scale) GLXMA,[16],0
same,Plant response rating (0 to 100 scale) HORVW,[17],0
same,Plant response rating (0 to 100 scale) TRZAW,[18],0
same,Plant response rating (0 to 100 scale) ZEAMD,[19],0
